In EP4617278A1, “NUCLEOTIDE ANALOG, AND COMPOSITION AND USE THEREOF” (priority 2022, dated 2024):

Tested on: SARS-CoV-2 replicon
Format: cell-based
Conditions: read-out: SARS-CoV-2 Replicon (Huh-7cell) EC50

Compared with “(2R,3R,4R,5R)-2-(4-aminopyrrolo[2,1-f][1,2,4]triazin-7-yl)-2-cyano-5-((((S)-(((S)-1-isopropoxy-1-oxopropan-2-yl)amino)(((isopropoxycarbonyl)oxy)methoxy)phosphoryl)oxy)methyl)tetrahydrofuran-3,4-diyl diacetate [Compound 1b]”, `CC(C)OC(=O)OCOP(=O)(OCOC(=O)OC(C)C)OC[C@H]1O[C@@](C#N)(c2c(Br)cc3c(N)ncnn23)[C@H](OC(=O)C(C)C)[C@@H]1OC(=O)C(C)C` [Compound 65, (2R,3R,4R,5R)-2-(4-amino-6-bromopyrrolo[2,1-f][1,2,4]triazin-7-yl)-5-(((bis(((isopropoxycarbonyl)oxy)methoxy)phosphoryl)oxy)methyl)-2-cyanotetrahydrofuran-3,4-diyl bis(2-methylpropionate)] is higher in EC50: 5 to 10 nM for the first, 50 to 500 nM for the second.

`CCC(=O)O[C@H]1[C@@H](OC(=O)CC)[C@](C#N)(c2ccc3c(N)ncnn23)O[C@@H]1CO[P@@](=O)(N[C@@H](C)C(=O)OCC(CC)CC)OCOC(=O)C(C)(C)C` [Compound 10b, (2R,3R,4R,5R)-2-(4-aminopyrrolo[2,1-f][1,2,4]triazin-7-yl)-2-cyano-5-((((S)-(((S)-1-(2-ethylbutoxy)-1-oxopropan-2-yl)amino)((pivaloyloxy)methoxy)phosphoryl)oxy)methyl)tetrahydrofuran-3,4-diyl dipropionate] and `CC(=O)OCO[P@](=O)(OC[C@H]1O[C@@](C#N)(c2ccc3c(N)ncnn23)[C@H](OC(=O)C(C)C)[C@@H]1OC(=O)C(C)C)Oc1ccc(C(C)(C)C)cc1` [Compound 43b, (2R,3R,4R,5R)-2-(4-aminopyrrolo[2,1-f][1,2,4]triazin-7-yl)-5-(((((R)-acetoxylmethoxy)(4-tert-butylphenoxy)phosphoryl)oxy)methyl)-2-cyanotetrahydrofuran-3,4-diyl bis(2-methylpropionate)] cannot be ordered by EC50: ≤ 5 nM for the first, 5 to 10 nM for the second.

Compared with `CCC(=O)O[C@H]1[C@@H](OC(=O)CC)[C@](C#N)(c2ccc3c(N)ncnn23)O[C@@H]1CO[P@@](=O)(N[C@@H](C)C(=O)OCC(CC)CC)OCOC(=O)OC(C)C` [Compound 6b, (2R,3R,4R,5R)-2-(4-aminopyrrolo[2,1-f][1,2,4]triazin-7-yl)-2-cyano-5-((((S)-(((S)-1-(2-ethylbutoxy)-1-oxopropan-2-yl)amino)(((isopropoxycarbonyl)oxy)methoxy)phosphoryl)oxy)methyl)tetrahydrofuran-3,4-diyl dipropionate], `CCC(CC)COC(=O)[C@H](Cc1ccccc1)N[P@@](=O)(OCOC(=O)OC(C)C)OC[C@H]1O[C@@](C#N)(c2ccc3c(N)ncnn23)[C@H](OC(=O)C(C)C)[C@@H]1OC(=O)C(C)C` [Compound 31b, (2R,3R,4R,5R)-2-(4-aminopyrrolo[2,1-f][1,2,4]triazin-7-yl)-2-cyano-5-((((S)-(((S)-1-(2-ethylbutoxy)-1-oxo-3-phenylpropan-2-yl)amino)(((isopropoxycarbonyl)oxy)methoxy)phosphoryl)oxy)methyl)tetrahydrofuran-3,4-diyl bis(2-methylpropionate)] is higher in EC50: ≤ 5 nM for the first, 10 to 50 nM for the second. The first is the more potent here.

“(2R,3R,4R,5R)-2-(4-aminopyrrolo[2,1-f][1,2,4]triazin-7-yl)-2-cyano-5-((((S)-(((S)-1-(2-ethylbutoxy)-1-oxopropan-2-yl)amino)(((isopropoxycarbonyl)oxy)methoxy)phosphoryl)oxy)methyl)tetrahydrofuran-3,4-diyl diacetate [Compound 5b]” and `CCC(=O)O[C@H]1[C@@H](OC(=O)CC)[C@](C#N)(c2ccc3c(N)ncnn23)O[C@@H]1CO[P@](=O)(N[C@@H](C)C(=O)OC(C)C)OCOC(=O)OC(C)C` [Compound 2a, (2R,3R,4R,5R)-2-(4-aminopyrrolo[2,1-f][1,2,4]triazin-7-yl)-2-cyano-5-((((R)-(((S)-1-isopropoxy-1-oxopropan-2-yl)amino)(((isopropoxycarbonyl)oxy)methoxy)phosphoryl)oxy)methyl)tetrahydrofuran-3,4-diyl dipropionate] fall in the same range of EC50: 5 to 10 nM for the first, 5 to 10 nM for the second.

Compared with `CC(C)C(=O)O[C@H]1[C@@H](OC(=O)C(C)C)[C@](C#N)(c2ccc3c(N)ncnn23)O[C@@H]1COP(=O)(OCCSC(=O)C(C)(C)C)Oc1ccc(C(C)(C)C)cc1` (mixture of isomers) [Compound 27, (2R,3R,4R,5R)-2-(4-aminopyrrolo[2,1-f][1,2,4]triazin-7-yl)-5-((((4-tert-butylphenoxy)(2-(pivaloylthio)ethoxy)phosphoryl)oxy)methyl)-2-cyanotetrahydrofuran-3,4-diyl bis(2-methylpropionate)], `CC(C)C(=O)O[C@H]1[C@@H](OC(=O)C(C)C)[C@](C#N)(c2ccc3c(N)ncnn23)O[C@@H]1COP(=O)(OCCSC(=O)C(C)(C)C)OCCSC(=O)C(C)(C)C` [Compound 30, (2R,3R,4R,5R)-2-(4-aminopyrrolo[2,1-f][1,2,4]triazin-7-yl)-5-((((bis(2-(pivaloylthio)ethoxy))phosphoryl)oxy)methyl)-2-cyanotetrahydrofuran-3,4-diyl bis(2-methylpropionate)] is lower in EC50: 10 to 50 nM for the first, < 5 nM for the second.

`CCCCCCCCCCCCOC(=O)[C@H](C)N[P@](=O)(OC[C@H]1O[C@@](C#N)(c2ccc3c(N)ncnn23)[C@H](OC(=O)C(C)C)[C@@H]1OC(=O)C(C)C)Oc1ccccc1` [Compound 46b, (2R,3R,4R,5R)-2-(4-aminopyrrolo[2,1-f][1,2,4]triazin-7-yl)-2-cyano-5-((((S)-(((S)-1-(dodecyloxy)-1-oxopropan-2-yl)amino)(phenoxy)phosphoryl)oxy)methyl)tetrahydrofuran-3,4-diyl bis(2-methylpropionate)] and `CCCCCCCCCCCCOC(=O)[C@H](C)N[P@@](=O)(OC[C@H]1O[C@@](C#N)(c2ccc3c(N)ncnn23)[C@H](OC(=O)C(C)C)[C@@H]1OC(=O)C(C)C)Oc1ccccc1` [Compound 46a] fall in the same range of EC50: 50 to 500 nM for the first, 50 to 500 nM for the second.

Compared with `CC(C)C(=O)O[C@H]1[C@@H](OC(=O)C(C)C)[C@](C#N)(c2ccc3c(N)ncnn23)O[C@@H]1CO[P@@](=O)(OCOC(=O)C(C)(C)C)Oc1ccc(C(C)(C)C)cc1` [Compound 44b, (2R,3R,4R,5R)-2-(4-aminopyrrolo[2,1-f][1,2,4]triazin-7-yl)-5-(((((R)-4-tert-butylphenoxy)(((tert-butylcarbonyl)oxy)methoxy)phosphoryl)oxy)methyl)-2-cyanotetrahydrofuran-3,4-diyl bis(2-methylpropionate)], `CCC(CC)COC(=O)[C@H](Cc1ccccc1)N[P@](=O)(OC[C@H]1O[C@@](C#N)(c2ccc3c(N)ncnn23)[C@H](OC(=O)C(C)C)[C@@H]1OC(=O)C(C)C)Oc1ccccc1` [Compound 41b, (2R,3R,4R,5R)-2-(4-aminopyrrolo[2,1-f][1,2,4]triazin-7-yl)-2-cyano-5-((((S)-(((S)-1-(2-ethylbutoxy)-1-oxo-3-phenylpropan-2-yl)amino)(phenoxy)phosphoryl)oxy)methyl)tetrahydrofuran-3,4-diyl bis(2-methylpropionate)] is lower in EC50: 10 to 50 nM for the first, 5 to 10 nM for the second. The second is the more potent here.

Compared with `CC(C)OC(=O)OCO[P@@](=O)(N[C@@H](C)C(=O)OC1CCC1)OC[C@H]1O[C@@](C#N)(c2ccc3c(N)ncnn23)[C@H](OC(=O)C(C)C)[C@@H]1OC(=O)C(C)C` [Compound 13a, (2R,3R,4R,5R)-2-(4-aminopyrrolo[2,1-f][1,2,4]triazin-7-yl)-2-cyano-5-((((R)-(((S)-1-cyclobutoxy-1-oxopropan-2-yl)amino)(((isopropoxycarbonyl)oxy)methoxy)phosphoryl)oxy)methyl)tetrahydrofuran-3,4-diyl bis(2-methylpropionate)], `CCC(CC)COC(=O)[C@H](C)N[P@](=O)(OCOC(=O)C(C)(C)C)OC[C@H]1O[C@@](C#N)(c2ccc3c(N)ncnn23)[C@H](OC(C)=O)[C@@H]1OC(C)=O` [Compound 9a, (2R,3R,4R,5R)-2-(4-aminopyrrolo[2,1-f][1,2,4]triazin-7-yl)-2-cyano-5-((((R)-(((S)-1-(2-ethylbutoxy)-1-oxopropan-2-yl)amino)((pivaloyloxy)methoxy)phosphoryl)oxy)methyl)tetrahydrofuran-3,4-diyl diacetate] is higher in EC50: < 5 nM for the first, 5 to 10 nM for the second. The first is the more potent here.

First: CCCCC/C=C\C/C=C\CCCCCCCCOC(=O)[C@H](C)NP(=O)(OCOC(=O)C(C)(C)C)OC[C@H]1O[C@@](C#N)(c2ccc3c(N)ncnn23)[C@H](OC(=O)C(C)C)[C@@H]1OC(=O)C(C)C (stereo partly drawn) [Compound 51, (2R,3R,4R,5R)-2-(4-aminopyrrolo[2,1-f][1,2,4]triazin-7-yl)-2-cyano-5-((((((S)-1-(((9Z,12Z)-octadeca-9,12-dien-1-yl)oxy)-1-oxopropan-2-yl)amino)((pivaloyloxy)methoxy)phosphoryl)oxy)methyl)tetrahydrofuran-3,4-diyl bis(2-methylpropionate)]
Second: CC(C)OC(=O)OCO[P@](=O)(N[C@@H](C)C(=O)OC1CCC1)OC[C@H]1O[C@@](C#N)(c2ccc3c(N)ncnn23)[C@H](OC(=O)C(C)C)[C@@H]1OC(=O)C(C)C [Compound 13b, (2R,3R,4R,5R)-2-(4-aminopyrrolo[2,1-f][1,2,4]triazin-7-yl)-2-cyano-5-((((S)-(((S)-1-cyclobutoxy-1-oxopropan-2-yl)amino)(((isopropoxycarbonyl)oxy)methoxy)phosphoryl)oxy)methyl)tetrahydrofuran-3,4-diyl bis(2-methylpropionate)]
The EC50 of the first is higher: 50 to 500 nM for the first, < 5 nM for the second.

`CCC(CC)COC(=O)[C@H](Cc1ccccc1)N[P@@](=O)(OC[C@H]1O[C@@](C#N)(c2ccc3c(N)ncnn23)[C@H](OC(=O)C(C)C)[C@@H]1OC(=O)C(C)C)Oc1ccc(C(C)(C)C)cc1` [Compound 53a, (2R,3R,4R,5R)-2-(4-aminopyrrolo[2,1-f][1,2,4]triazin-7-yl)-2-cyano-5-((((((S)-1-(2-ethylbutoxy)-1-oxo-3-phenylpropan-2-yl)amino)((R)-4-tert-butylphenoxy)phosphoryl)oxy)methyl)tetrahydrofuran-3,4-diyl bis(2-methylpropionate)] and `CCC(CC)COC(=O)[C@H](C)N[P@@](=O)(OCOC(=O)C(C)(C)C)OC[C@H]1O[C@@](C#N)(c2ccc3c(N)ncnn23)[C@H](OC(=O)C(C)(C)C)[C@@H]1OC(=O)C(C)(C)C` [Compound 12b, (2R,3R,4R,5R)-2-(4-aminopyrrolo[2,1-f][1,2,4]triazin-7-yl)-2-cyano-5-((((S)-(((S)-1-(2-ethylbutoxy)-1-oxopropan-2-yl)amino)((pivaloyloxy)methoxy)phosphoryl)oxy)methyl)tetrahydrofuran-3,4-diyl bis(2,2-dimethylpropionate)] fall in the same range of EC50: 50 to 500 nM for the first, 50 to 500 nM for the second.
